Laboratory results taken from publication PMC4696031 (Cancer, 2013).
Several values for one entry are separate records, joined by “and”; a condition that tells them apart may be missing. Equal values may be shown once.

Tests used:
[1] = tested on: locally advanced or metastatic urothelial cancer; assay: Phase 2 trial: tumor response; format: in vivo, patients
[2] = tested on: patients with locally advanced or metastatic urothelial cancer; assay: Phase 2 trial: safety, adverse events; format: in vivo
[3] = tested on: solid tumors; conditions: cited from earlier work
[4] = Phase 2 trial: plasma pharmacokinetics; format: in vivo, patients; conditions: for Tmax: first 2-hour intravenous infusion of 300 mg
[5] = tested on: UC cell lines; conditions: cited from earlier work
[6] = tested on: metastatic UC; conditions: cited from earlier work; for long-term progression-free survival (PFS): at 5 years; for complete response (CR) rate / median overall survival (mOS) / overall response rate: first-line, phase 3
[7] = tested on: urothelial cancer; conditions: cited from earlier work
[8] = tested on: advanced UC; conditions: vinflunine plus BSC, vs 1.5 months BSC alone, P = .001; cited from earlier work
[9] = post hoc subgroup: disease progression >6 months after most recent chemotherapy
[10] = post hoc subgroup: disease progression ≤6 months after most recent chemotherapy
[11] = subgroup: patients who did not escalate
[12] = subgroup: patients who escalated to volasertib 350 mg

CC[C@@H]1C(=O)N(C)c2cnc(Nc3ccc(C(=O)N[C@H]4CC[C@H](N5CCN(CC6CC6)CC5)CC4)cc3OC)nc2N1C(C)C [Volasertib]
Disease control: PR + SD ([1]; N = 50): 20 (40) No. of patients (%)
OS rate at 3 mo ([1]; N = 50): 77.2%
OS rate at 6 mo ([1]; N = 50): 55.5%
OS: Median [95% CI] ([1]; N = 50): 8.5 [3.9-12.1] mo
PFS rate at 3 mo ([1]; N = 50): 32%
PFS rate at 6 mo ([1]; N = 50): 20%
PFS: Median [95% CI] ([1]; N = 50): 6.1 [5.6-11.1] wk
patients with partial response ([1]; N = 50): 14%
patients with stable disease ([1]; N = 50): 26%
Response: SD ([1]; best overall response, N = 50): 13 (26) No. of patients (%)
patients who achieved a PR as best overall response ([1]; final analysis, N = 50): 7 patients
overall response rate ([1]; final analysis, N = 50, all PRs): 14%
Duration of disease control, PR or SD: Median ([1]; in vivo): 27.0 wk
Duration of disease control, PR or SD: range ([1]; in vivo): 10.1-77.3 wk
patients with PR at preplanned interim efficacy analysis ([1]; of the first 20 patients who completed 4 treatment cycles): 2 patients
mPFS [1, 9]: 10.1 weeks
response rate [1, 9]: 15%
mPFS [1, 10]: 5.6 weeks
response rate [1, 10]: 14%
Duration of PR: range ([1]; responders): 29.1-77.3 wk
PR / response rate [1, 11]: 7.4% and 7%
mOS [1, 11]: 5.8 months
mPFS [1, 11]: 6.0 weeks and 6 weeks
PR / response rate [1, 12]: 21.7% and 22%
mOS [1, 12]: 10.6 months
mPFS [1, 12]: 11.1 weeks
Adverse event leading to dose reduction: Diarrhea ([2]; human, in vivo): 1 (2) No. of Patients (%)
Adverse event leading to dose reduction: ECG: Prolonged QT ([2]; human, in vivo): 1 (2) No. of Patients (%)
Adverse event leading to dose reduction: Fatigue ([2]; human, in vivo): 1 (2) No. of Patients (%)
Adverse event leading to dose reduction: Nausea ([2]; human, in vivo): 1 (2) No. of Patients (%)
Adverse event leading to dose reduction: Neutropenia ([2]; human, in vivo): 2 (4) No. of Patients (%)
Adverse event leading to dose reduction: Thrombocytopenia ([2]; human, in vivo): 3 (6) No. of Patients (%)
febrile neutropenia (grade 3) ([2]; human, in vivo): 1 episode
grade 3 and 4 anemia ([2]; human, in vivo): 16%
grade 3 and 4 neutropenia ([2]; human, in vivo): 28%
grade 3 and 4 thrombocytopenia ([2]; human, in vivo): 20%
patients with dose reductions because of unacceptable toxicities in cycle 1 ([2]; human, in vivo): 4 patients
patients with dose reductions because of unacceptable toxicities, overall ([2]; human, in vivo): 14%
treatment discontinuation because of AE ([2]; human, in vivo): 1 n
clinically relevant side effect such as arrhythmias or cardiac dysfunction ([2]; in vivo): No clinically relevant side effect
cumulative toxicity ([2]; in vivo): No cumulative toxicity was observed
grade 3 QTc prolongation ([2]; in vivo): One patient
safety profile ([2]; in vivo): acceptable safety profile
deaths attributed to the study treatment ([2]; three patients died during the study because of disease progression): none
maximum tolerated dose ([3]; dose-escalation clinical phase 1 trial): 400 mg
recommended dose for phase 2 trials ([3]; in vivo, iv): 300 mg
tumor response in phase 1 trials ([3]; patients with heavily pretreated, metastatic UC): partial responses
effect of sex, age, weight, body mass index, or body surface area on PK profile ([4]; data not shown): not significantly affected
AUC(0-inf) ([4]; human, plasma, iv, 300 mg): 5470 ng·h/mL
Cmax ([4]; human, plasma, iv, 300 mg): 253 ng/mL
MRT ([4]; human, plasma, iv, 300 mg): 136 h
Vd ([4]; human, plasma, iv, 300 mg): 7470 L
clearance ([4]; human, plasma, iv, 300 mg): 914 mL/min
half-life ([4]; human, plasma, iv, 300 mg): 150 h
Tmax ([4]; human, plasma, iv, 300 mg, Median): ~2 h
Tmax ([4]; human, plasma, iv, 300 mg, Range): 1.53 to 4.17 h
PK behavior ([4]; plasma concentration-time course): multiexponential PK behavior
mitotic arrest and apoptosis in UC cells [5]: promote mitotic arrest and apoptosis
proliferation of multiple UC cell lines ([5]; ref data on file, Boehringer Ingelheim): inhibited the proliferation

methotrexate, vinblastine, doxorubicin, and cisplatin [MVAC]
long-term progression-free survival (PFS) [6]: 11.3%
complete response (CR) rate [6]: approximately 12%
median overall survival (mOS) [6]: 14.8 months
overall response rate [6]: 46%

Cc1ccc(Nc2nccc(N(C)c3ccc4c(C)n(C)nc4c3)n2)cc1S(N)(=O)=O [pazopanib]
antitumor activity in nonrandomized phase 2 trials [7]: modest activity

CC[C@]12C=CCN3CC[C@@]4(c5cc([C@@]6(C(=O)OC)C[C@@H]7C[C@@H](C(C)(F)F)CN(Cc8c6[nH]c6ccccc86)C7)c(OC)cc5N(C)[C@H]4[C@@](O)(C(=O)OC)[C@@H]1OC(C)=O)[C@@H]32 [Vinflunine, vinflunine]
median PFS (mPFS) [8]: 3.0 months

gemcitabine plus cisplatin [GC]
long-term progression-free survival (PFS) [6]: 9.8%
complete response (CR) rate [6]: approximately 12%
median overall survival (mOS) [6]: 13.8 months
overall response rate [6]: 49%
